In the experiment the test system is Septoria tritici. Kind of experiment: Glass house trial: control of leaf blotch on wheat caused by Septoria tritici (SEPTTR_P1). The format is in vivo. The following applies: 300 ppm, protective P1, wheat seedlings sprayed to run-off, visually assessed after 4 weeks. The method, then: The spray solutions were prepared in several steps:
The stock solution was prepared as follows: 0.84 ml of a 1:1 mixture of cyclohexanone and dimethylsulfoxide was added to 16.8 mg of active ingredient. Next, 27.16 ml of a mixture of water, acetone (10%), the emulsifier Wettol (0.1%) and the wetting agent Silwet (0.05%) was added.
This stock solution was then further diluted with the described solvent-emulsifier-water mixture to the desired concentrations. Two different compound applications were used: “protective, P1” and “curative, K1”, where the first means that the compound solution is applied a day before the fungus while the latter represents the opposite ordering.
Control of Leaf Blotch on Wheat Caused by Septoria tritici (SEPTTR_P1)
Leaves of pot-grown wheat seedling were sprayed to run-off with an aqueous suspension of F-1 (300 ppm), prepared as described. The plants were allowed to air-dry. At the following day the plants were inoculated with an aqueous spore suspension of Septoria tritici. Then the trial plants were immediately transferred to a humid chamber at 18-22° C. and a relative humidity close to 100%. After 4 days the plants were transferred to a chamber with 18-22° C. and a relative humidity close to 70%.

Take `CNC(=O)OCc1cc(/C(C)=N/OCc2cccc(C)n2)ccc1Cl` [F-1, [2-chloro-5-[(E)-C-methyl-N-[(6-methyl-2-pyridyl)methoxy]carbonimidoyl]phenyl]methyl N-methylcarbamate]: the “extent of fungal attack on the leaves (infection compared to untreated plants)” value is recorded as at most 30%.

The values are drawn from patent publication US20160145202A1 (priority 2013, published 2016).
